{"source": "patent US9943528B2", "about": "(MAPREG, priority 2016, dated 2018)", "key": {"[1]": {"test_system": "purified tubulin and MAP2", "test": "Activity: increase in optical density at 345 nm of purified tubulin and MAP2 with GTP", "assay_type": "biochemical", "conditions": "37° C.", "experimental": "Activity is measured by the increase in optical density at 345 nm of a mixture of purified tubulin and MAP2, incubated at 37° C. in the presence of GTP."}, "[2]": {"test_system": "Wistar Kyoto (WKY) rats", "test": "Neurogenesis in dentate gyrus of hippocampus (BrdU/NeuN) in WKY rats", "assay_type": "in vivo, rat", "conditions": "chronic MAP4343 15 mg/kg, s.c., 24 days, FIG. 9C", "experimental": "Wistar Kyoto (WKY) rats are considered as a model of treatment-resistant depression, while Wistar (WI) rats are used as control strain of WKY rats. During this experiment both WI and WKY rats were administered with MAP4343 (15 mg/Kg), subcutaneously (s.c.) for 24 days. Behavioral tests were performed at during the last week of treatment, and rats were finally sacrificed for addressing neurogenesis in Gyrus dentate of hippocampus using histological experiments. Organization of this protocol is depicted in FIG. 7.\nMAP4343 was diluted in sesame oil, and then administered subcutaneously (s.c.) at the dose of 15 mg/kg during 24 days. The vehicle group received only the sesame oil (1 ml/kg) in the similar conditions.\nInjections of BrdU were performed twice at D0, 24 and 22 hours before the beginning of treatment. All animals were equally given two injections of BrdU (75 mg/kg, dissolved in saline solution intraperitoneally), at two hours pulse-chase interval. […]\nNeurogenesis in each dentate gyrus was manually measured by quantification of positive cells co-labelled with BrdU/NeuN, using a microscope equipped with epifluorescence (Zeiss Axiovert 200, objective 40×). Total number of new neurons in the entire dentate gyrus was estimated by multiplying the measured number by 8 (that corresponds to the number of unused sections separating each coronal sections used to count the newly-formed neurons). […]"}, "[3]": {"test_system": "Wistar Kyoto (WKY) rats", "test": "Open-field arena (OFA) in WKY rats, acute treatment", "assay_type": "in vivo, rat", "conditions": "MAP4343 10 mg/kg s.c., fluoxetine 10 mg/kg i.p., ketamine 30 mg/kg i.p.", "experimental": "After a 6-day period of acclimatization, all experimental groups received daily successive subcutaneous (250 μl per rat) and intraperitoneal (1 ml/kg) injections. WI rats received injection of vehicle (sesame oil+saline) while WKY rats were randomly assigned to […] experimental groups, as follow: KWY rats receiving only vehicle (sesame oil+saline) and WKY rats treated with MAP4343 (10 mg/kg, s.c.; rats received in parallel i.p. injections of saline), fluoxetine (10 mg/kg i.p., rats received in parallel s.c. injections of sesame oil) or ketamine (30 mg/kg, i.p.; rats received in parallel s.c. injections of sesame oil) (see FIG. 3).\nAfter, a 6-day period of acclimatization, the acute phase of treatment started for 4 days during behavioral tests were performed (FIG. 3). All animals were injected 1 h 30 before the starting of behavioral test.\nThe animals were individually placed in the open field arena (OFA) (70×100×70 cm), with a central square (35×50 cm), located in a 50 lux illuminated room and videotaped during 3 min using a computerized system (VideoTrack V2.5, ViewPoint, Lyon, France).\nOFA allows firstly the evaluation of total locomotor activity (LMA) thereby measuring the total distance travelled in the arena (in cm). Secondly, measurements of the activity in the center of the arena like (i) the number of entries in the center of arena and (ii) the total time spent in the center of arena (in sec) provide cues of anxiety-like behavior (Prut and Belzung, 2003). All these behavioral parameters were instantaneously measured automatically with the VideoTrack V2.5 software from the videos."}, "[4]": {"test_system": "80 different CNS neurotransmitters receptors", "test": "Screen for in vitro affinity to 80 different CNS neurotransmitters receptors", "conditions": "80 CNS neurotransmitters receptors, validated binding assays", "excerpt": "MAP4343 has been screened for in vitro affinity to 80 different CNS neurotransmitters receptors using various validated binding assays."}}, "data": [{"smiles": "CO[C@H]1CC[C@@]2(C)C(=CC[C@H]3[C@@H]4CC[C@H](C(C)=O)[C@@]4(C)CC[C@@H]32)C1", "note": "[MAP4343, 3β-methoxy-pregna-5-ene-20-one]", "values": [{"measurement": "Activity", "setting": "[1]", "result": "100% of PREG"}, {"measurement": "number of newly-formed neurons (BrdU and Neu-N) in dentate gyrus, change vs WKY receiving only vehicle", "setting": "[2]", "result": "+71%"}, {"measurement": "locomotor activity (total distance travelled in the open-field arena), change vs WKY receiving vehicle", "setting": "[3]; 3 min, FIG. 5A", "result": "did not modify significantly the locomotor activity"}, {"measurement": "number of entries in the central square of OFA, change vs WKY receiving only vehicle", "setting": "[3]; FIG. 5B", "result": "+289%"}, {"measurement": "time spent in the center of open-field vs WKY receiving vehicle", "setting": "[3]; FIG. 5C", "result": "did not modify the low time spent in central square of arena"}, {"measurement": "in vitro affinity for the tested receptors", "setting": "[4]", "result": "no significant affinity for any tested receptor"}]}]}
